Data on 10 compounds can be found in US11639350B2, “Heteroaryldihydropyrimidine derivatives and methods of treating hepatitis B infections” (Janssen Pharmaceutica NV, priority 2018, dated 2023).

For one series, the system named is HBV. As to the kind of experiment: HBV inhibitory activity: HBV DNA in the culture medium of HepG2.2.15 cells by q-PCR. The class given is cell-based. The following applies: Hepatitis B virus, HepG2.2.15, 144 h, HepG2.2.15 cells, 6 days of compound treatment, HBV DNA in culture medium by q-PCR, highest concentration 10 μM; read-out: EC50. The procedure, abridged:
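Supernatant HBV DNA quantified by q-PCR after a 6-day compound exposure, with one mid-course medium change, of HepG2.2.15 cells (stably integrated HBV; 40,000 per well, 2% FBS). Eight-point 3-fold series topped at 10 μM for antiviral EC50; separate plates of 5,000 cells per well with 100 μM top give CC50.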

Series [1] is described as follows: Cytotoxicity determination in HepG2.2.15 cells (CCK-8). The class given is cell-based. The note with it: human, 6 days of compound treatment, CCK-8, highest concentration 100 μM. The procedure, abridged: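 CC50 is from CCK-8 absorbance (450 nm, 630 nm reference) after 2.5 h with reagent. Before that, compounds were applied for six days, top concentration 100 μM, eight threefold dilutions, one mid-course medium change, to stably HBV-integrated HepG2.2.15 cells plated at 5,000/well in 2% FBS.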

SMILES strings stand for the structures.

In general, EC50 refers to the concentration giving half of the maximal effect. For orientation: CC50 means the concentration that lowers cell viability or growth by half. Read a high CC50 as lower toxicity to the cells. With `COC(=O)C1=C(C2CN(S(=O)(=O)C3CCCCC3)C2)NC(c2nccs2)=NC1c1ccc(F)cc1Cl` (centres unmarked) [Compound 82, Methyl 4-(2-chloro-4-fluorophenyl)-6-(1-(cyclohexylsulfonyl)-azetidin-3-yl)-2-(thiazol-2-yl)-1,4-dihydropyrimidine-5-carboxylate], in the series on HBV, the EC50 is 197 nM. In series [1], this compound registered a CC50 at 6 days of 6900 nM.
For `COC(=O)C1=C(C2CC(C(=O)O)C2)NC(c2nccs2)=NC1c1ccc(F)cc1Cl` (centres unmarked) [Compound 86, 6-(3-Carboxy-cyclobutyl)-4-(2-chloro-4-fluoro-phenyl)-2-thiazol-2-yl-1,4-dihydro-pyrimidine-5-carboxylic acid methyl ester], in that order: 110 nM and 21600 nM.
For `CCOC(=O)C1=C(C2CCN(S(C)(=O)=O)CC2)NC(c2nccs2)=NC1c1cccc(F)c1Cl` (centres unmarked) [Compound 96B, Ethyl 4-(2-chloro-3-fluorophenyl)-6-(1-(methylsulfonyl)piperidin-4-yl)-2-(thiazol-2-yl)-1,4-dihydropyrimidine-5-carboxylate], in that order: 130 nM and 21200 nM.
On the same counts, the results for `COC(=O)C1=C(C2CCN(S(C)(=O)=O)CC2)NC(c2nccs2)=NC1c1ccc(Cl)cc1F` (centres unmarked) [Compound 97B, 4-(4-Chloro-2-fluoro-phenyl)-6-(1-methanesulfonyl-pip-eridin-4-yl)-2-thiazol-2-yl-1,4-dihydro-pyrimidine-5-carboxylic Acid Methyl Ester] are 47 nM and greater than 100000 nM.
Take `COC(=O)C1=C(C2CCN(S(=O)(=O)C3CC3)CC2)NC(c2nccs2)=NC1c1ccc(F)cc1Cl` (centres unmarked) [Compound 100, Methyl 4-(2-chloro-4-fluorophenyl)-6-(1-(cyclopropylsulfonyl)-piperidin-4-yl)-2-(thiazol-2-yl)-1,4-dihydropyrimidine-5-carboxylate]: the EC50 in the series with HBV was determined as 166 nM. Besides, in series [1], half-maximal cytotoxicity (CC50 at 6 days) was put at 7200 nM.
Turning to `CCS(=O)(=O)N1CCC(C2=C(C(=O)OC)C(c3ccc(F)cc3Cl)N=C(c3nccs3)N2)CC1` (centres unmarked) [Compound 101, Methyl 4-(2-chloro-4-fluorophenyl)-6-(1-(ethylsulfonyl)piperidin-4-yl)-2-(thiazol-2-yl)-1,4-dihydropyrimidine-5-carboxylate], the EC50 in the series on HBV is 210 nM. In series [1], this compound showed a CC50 at 6 days of 38000 nM.
On the same counts, the results for `COC(=O)C1=C(C2CCN(C(=O)C3CC3)CC2)NC(c2nccs2)=NC1c1ccc(F)cc1Cl` (centres unmarked) [Compound 102, Methyl 4-(2-chloro-4-fluorophenyl)-6-(1-(cyclopropanecarbonyl)-piperidin-4-yl)-2-(thiazol-2-yl)-1,4-dihydropyrimidine-5-carboxylate] are 130 nM and 57000 nM.
On the same counts, the results for `COC(=O)C1=C(C2CCN(S(C)(=O)=O)CC2)NC(c2nccs2)=NC1c1ccc(F)cc1Cl` (centres unmarked) [Compound 103, Methyl 4-(2-chloro-4-fluorophenyl)-6-(1-(methylsulfonyl)-piperidin-4-yl)-2-(thiazol-2-yl)-1,4-dihydropyrimidine-5-carboxylate] are 501 nM and 87000 nM.
For `COC(=O)C1=C(C2CCN(S(=O)(=O)CCC(=O)O)CC2)NC(c2nccs2)=NC1c1ccc(F)cc1Cl` (centres unmarked) [Compound 105, 3-((4-(6-(2-Chloro-4-fluorophenyl)-5-(methoxycarbonyl)-2-(thiazol-2-yl)-3,6-dihydropyrimidin-4-yl)piperidin-1-yl)sulfonyl)propanoic Acid], in that order: 150 nM and 14400 nM.
For the compound `COC(=O)C1=C(C2CCN(S(=O)(=O)CC(=O)O)CC2)NC(c2nccs2)=NC1c1ccc(F)cc1Cl` (centres unmarked) [Compound 107, 2-((4-(6-(2-Chloro-4-fluorophenyl)-5-(methoxycarbonyl)-2-(thiazol-2-yl)-3,6-dihydropyrimidin-4-yl)piperidin-1-yl)sulfonyl)acetic Acid], the EC50 in the series with HBV is 248 nM. The same compound yielded a CC50 at 6 days in series [1] of 51400 nM.
